Results reported in US20180360769A1, “SYSTEMS AND METHODS FOR TRANSDERMAL DRUG DELIVERY” (Elliptical Therapeutics, LLC, priority 2015, published 2018).

Tests used:
[1] = system: moderate to severe post-operative pain; conditions: cited from earlier work
[2] = in vivo; cited from earlier work
[3] = human subjects, cited from earlier work
[4] = animal models; cited from earlier work
rabbit skin = conditions: in vivo

O=C(c1ccccc1)c1ccc2n1CCC2C(=O)O (racemic) [Toradol®, Ketorolac tromethamine]
adverse effects ([1]; administered orally for extended periods of time): gastric irritation and ulcers have been observed | efficacy compared with morphine, meperidine, or pentazocine ([1]; single-dose, moderate to severe post-operative pain): more efficacious

O=C(c1ccccc1)c1ccc2n1CCC2C(=O)O (racemic) [racemic ketorolac, ketorolac]
biological half-life [2]: 4-6 hours

O=C(c1ccccc1)c1ccc2n1CC[C@@H]2C(=O)O [(s)-ketorolac]
plasma concentrations compared with (r)-ketorolac ([3]; after oral administration of racemic ketorolac, all sample times): lower | clearance compared with (r)-ketorolac ([3]; single oral solution dose): greater | plasma half-life compared with (r)-ketorolac ([3]; single oral solution dose): shorter | potency compared with the (r)-enantiomer [4]: approximately twice as potent | skin irritation (erythema and edema), in words (rabbit skin): non-irritant

CCCCCCCCCCCCOS(=O)(=O)[O-].[Na+] [SDS, 5%, sodium dodecyl sulfate]
Overall Edema Score (rabbit skin; New Zealand): 2.0 | Overall Erythema Score (rabbit skin; New Zealand): 1.0
